Assay results from publication PMC13242511, “Disrupting Notch signalling by a small molecule inhibiting dihydroorotate dehydrogenase activity” (Scientific Reports, 2026).

Test system: Notch signalling
Assay: DHODH inhibitor and uridine rescue experiment (Notch reporter assay)
Format: cell-based
Settings: 1 and 10 µM, 24 h
Protocol: HEK293T Notch reporter cells (#A1-11) were grown to 80% confluency, detached and mixed with the indicated compounds and doses with or without uridine (Sigma-Aldrich, cat #U3003). 10,000 cells/well were then seeded into 96-well cell culture plates (ThermoFisher, cat #136102) and incubated for 24 h. DMSO treatment with or without uridine served as control for each treatment. Cells were then subjected to Notch reporter assays, and luciferase signals were recorded on a Varioscan Lux microplate reader (ThermoFisher). Reporter signals from each treatment were normalised to the respective DMSO control, as described above and three independent assays were recorded with at least two technical replicates per treatment.

Compound: COc1cccc(CNc2ccc(N3CCCCC3)cc2)c1OCc1cccs1 [compound C]
- effect on Notch reporter activity after addition of uridine (plus 100 µM uridine): reversed
- Notch reporter assay activity (without uridine): reduced the reporter assay activity
